The results in this text go back to patent US9850256B2, “Antibacterial basic biaromatic derivatives with aminoalkoxy substitution” (priority 2014, dated 2017).

Test in all cases: Bacterial growth minimal inhibitory concentration (microdilution, cation-adjusted Mueller-Hinton Broth)
One assay concerns S. aureus A798. Type of assay: cell-based, Staphylococcus aureus. Particulars: Staphylococcus aureus, A798; multiply-resistant strain (methicillin- and quinolone-resistant). As for the experimental part: (§1) Minimal Inhibitory Concentrations (MICs; mg/L) were determined in cation-adjusted Mueller-Hinton Broth by a microdilution method following the description given in “Methods for Dilution Antimicrobial Susceptibility Tests for Bacteria that Grow Aerobically”, Approved standard, 7th ed., Clinical and Laboratory Standards Institute (CLSI) Document M7-A7, Wayne, Pa., USA (2006).
(§2) All Example compounds were tested against several Gram positive and Gram negative bacteria. […] Staphylococcus aureus A798 is a multiply-resistant strain (methicillin- and quinolone-resistant), Klebsiella pneumoniae T6474 is a multiply-resistant strain (penicillin-, cephalosporin- and in particular quinolone-resistant), while E. coli ATCC25922 and Pseudomonas aeruginosa ATCC 27853 are quinolone-sensitive strains.

In the next assay the test system is K. pneumoniae T6474. The class given is cell-based, Klebsiella pneumoniae. The note with it: Klebsiella pneumoniae, T6474; multiply-resistant strain (penicillin-, cephalosporin- and quinolone-resistant). The procedure:
as §1, §2

In the next assay the test system is P. aeruginosa ATCC 27853. Type of assay: cell-based, Pseudomonas aeruginosa. Particulars: Pseudomonas aeruginosa, ATCC27853; quinolone-sensitive strain. The procedure: as §1, §2
In the next assay the test system is E. coli ATCC25922. The class given is cell-based. Particulars: Escherichia coli, ATCC25922; quinolone-sensitive strain. The procedure: as §1, §2

Converted amounts (≈) assume the structure as drawn.

As to `CN1CC[C@H](Oc2cccc(-c3cncc(CNCC[C@H]4CN(c5ccc6c(n5)NC(=O)CO6)C(=O)O4)c3)n2)C1` [Example $138, 6-[(S)-5-(2-{[6-((S)-1-methyl-pyrrolidin-3-yloxy)-[2,3′]bipyridinyl-5′-ylmethyl]-amino}-ethyl)-2-oxo-oxazolidin-3-yl]-4H-pyrido[3,2-b][1,4]oxazin-3-one], the minimum inhibitory concentration (MIC) in the assay on S. aureus A798 was determined as 2 µg/mL (≈ 3.67 µM); against K. pneumoniae T6474, 2 µg/mL (≈ 3.67 µM); in the assay with P. aeruginosa ATCC 27853 it was 2 µg/mL (≈ 3.67 µM); in the assay on E. coli ATCC25922, 1 µg/mL (≈ 1.83 µM).

For the compound `CN1CCC(Oc2cccc(-c3cccc(CNCC[C@H]4CN(c5ccc6c(n5)NC(=O)CO6)C(=O)O4)c3)n2)CC1` [Example $127, 6-[(S)-5-(2-{3-[6-(1-methyl-piperidin-4-yloxy)-pyridin-2-yl]-benzylamino}-ethyl)-2-oxo-oxazolidin-3-yl]-4H-pyrido[3,2-b][1,4]oxazin-3-one], the MIC against S. aureus A798 is 1 µg/mL (≈ 1.79 µM); in the assay with K. pneumoniae T6474 it was 8 µg/mL (≈ 14.3 µM); against P. aeruginosa ATCC 27853, 4 µg/mL (≈ 7.16 µM); in the assay on E. coli ATCC25922, 2 µg/mL (≈ 3.58 µM).

For the compound `CN1CC(Oc2cccc(-c3cccc(CNCC[C@H]4CN(c5ccc6c(n5)NC(=O)CO6)C(=O)O4)c3)n2)C1` [Example $122, 6-[(S)-5-(2-{3-[6-(1-methyl-azetidin-3-yloxy)-pyridin-2-yl]-benzylamino}-ethyl)-2-oxo-oxazolidin-3-yl]-4H-pyrido[3,2-b][1,4]oxazin-3-one], the MIC in the assay with S. aureus A798 came to 0.25 µg/mL (≈ 0.471 µM); in the assay on K. pneumoniae T6474, 0.5 µg/mL (≈ 0.942 µM); with P. aeruginosa ATCC 27853, 0.5 µg/mL (≈ 0.942 µM); in the assay with E. coli ATCC25922 it was 0.25 µg/mL (≈ 0.471 µM).

Consider `C[C@H]1[C@@H](Oc2cccc(-c3cccc(CNCC[C@H]4CN(c5ccc6c(n5)NC(=O)CO6)C(=O)O4)c3)n2)CCN1C` (relative stereo) [Example $176, 6-[(S)-5-(2-{3-[6-((2S*,3S*)-1,2-dimethyl-pyrrolidin-3-yloxy)-pyridin-2-yl]-benzylamino}-ethyl)-2-oxo-oxazolidin-3-yl]-4H-pyrido[3,2-b][1,4]oxazin-3-one], for which the MIC against S. aureus A798 came out at 0.25 µg/mL (≈ 0.448 µM); in the assay with K. pneumoniae T6474 it was 2 µg/mL (≈ 3.58 µM); against P. aeruginosa ATCC 27853, 2 µg/mL (≈ 3.58 µM); with E. coli ATCC25922, 2 µg/mL (≈ 3.58 µM).

With `CN1CC[C@H](Oc2cccc(-c3cc(CNCC[C@H]4CN(c5ccc6c(n5)NC(=O)CO6)C(=O)O4)ccn3)n2)C1` [Example $139, 6-[(S)-5-(2-{[6′-((S)-1-methyl-pyrrolidin-3-yloxy)-[2,2′]bipyridinyl-4-ylmethyl]-amino}-ethyl)-2-oxo-oxazolidin-3-yl]-4H-pyrido[3,2-b][1,4]oxazin-3-one], the MIC against S. aureus A798 was found to be 0.25 µg/mL (≈ 0.458 µM); in the assay with K. pneumoniae T6474 it was 1 µg/mL (≈ 1.83 µM); against P. aeruginosa ATCC 27853 it was 2 µg/mL (≈ 3.67 µM); in the assay with E. coli ATCC25922, 1 µg/mL (≈ 1.83 µM).

As for `C[C@@H]1NCC[C@@H]1Oc1cccc(-c2cccc(CNCC[C@H]3CN(c4ccc5c(n4)NC(=O)CO5)C(=O)O3)c2)n1` (relative stereo) [Example $172, 6-[(S)-5-(2-{3-[6-((2S*,3S*)-2-methyl-pyrrolidin-3-yloxy)-pyridin-2-yl]-benzylamino}-ethyl)-2-oxo-oxazolidin-3-yl]-4H-pyrido[3,2-b][1,4]oxazin-3-one], the minimal inhibitory concentration (MIC) with S. aureus A798 is 0.5 µg/mL (≈ 0.918 µM); against K. pneumoniae T6474 it was 2 µg/mL (≈ 3.67 µM); against P. aeruginosa ATCC 27853 it was 0.5 µg/mL (≈ 0.918 µM); with E. coli ATCC25922, 1 µg/mL (≈ 1.84 µM).

For the compound `CN1CC[C@H](COc2cccc(-c3cccc(CNCC[C@H]4CN(c5ccc6c(n5)NC(=O)CO6)C(=O)O4)c3)n2)C1` [Example $141, 6-[(S)-5-(2-{3-[6-((S)-1-methyl-pyrrolidin-3-ylmethoxy)-pyridin-2-yl]-benzylamino}-ethyl)-2-oxo-oxazolidin-3-yl]-4H-pyrido[3,2-b][1,4]oxazin-3-one], the minimal inhibitory concentration (MIC) in the assay on S. aureus A798 was determined as 0.5 µg/mL (≈ 0.895 µM); against K. pneumoniae T6474, 2 µg/mL (≈ 3.58 µM); against P. aeruginosa ATCC 27853 it was 2 µg/mL (≈ 3.58 µM); against E. coli ATCC25922, 2 µg/mL (≈ 3.58 µM).

Turning to `CN1CC[C@H]1COc1cccc(-c2cccc(CNCC[C@H]3CN(c4ccc5c(n4)NC(=O)CO5)C(=O)O3)c2)n1` [Example $123, 6-[(S)-5-(2-{3-[6-((S)-1-methyl-azetidin-2-ylmethoxy)-pyridin-2-yl]-benzylamino}-ethyl)-2-oxo-oxazolidin-3-yl]-4H-pyrido[3,2-b][1,4]oxazin-3-one], the MIC turned out to be 0.25 µg/mL (≈ 0.459 µM) against S. aureus A798, 1 µg/mL (≈ 1.84 µM) against K. pneumoniae T6474, 1 µg/mL (≈ 1.84 µM) with P. aeruginosa ATCC 27853 and 1 µg/mL (≈ 1.84 µM) in the assay on E. coli ATCC25922.

For `NCCCCOc1cccc(-c2cccc(CNCC[C@H]3CN(c4ccc5c(n4)NC(=O)CO5)C(=O)O3)c2)c1` [Example 5, 6-[(S)-5-(2-{[3′-(4-amino-butoxy)-biphenyl-3-ylmethyl]-amino}-ethyl)-2-oxo-oxazolidin-3-yl]-4H-pyrido[3,2-b][1,4]oxazin-3-one], the minimal inhibitory concentration (MIC) against S. aureus A798 was 2 µg/mL (≈ 3.76 µM); with K. pneumoniae T6474, 4 µg/mL (≈ 7.52 µM); in the assay on P. aeruginosa ATCC 27853, 4 µg/mL (≈ 7.52 µM); in the assay with E. coli ATCC25922, 4 µg/mL (≈ 7.52 µM).

For `NCCOc1nccc(-c2cccc(CNCC[C@H]3CN(c4ccc5c(n4)NC(=O)CO5)C(=O)O3)c2)n1` [Example $160, 6-[(S)-5-(2-{3-[2-(2-amino-ethoxy)-pyrimidin-4-yl]-benzylamino}-ethyl)-2-oxo-oxazolidin-3-yl]-4H-pyrido[3,2-b][1,4]oxazin-3-one], the MIC was determined as 4 µg/mL (≈ 7.91 µM) in the assay with S. aureus A798, 8 µg/mL (≈ 15.8 µM) with K. pneumoniae T6474, 1 µg/mL (≈ 1.98 µM) with P. aeruginosa ATCC 27853 and 2 µg/mL (≈ 3.96 µM) against E. coli ATCC25922.

In the case of `CN1CC[C@H](Oc2cncc(-c3ccnc(CNCC[C@H]4CN(c5ccc6c(n5)NC(=O)CO6)C(=O)O4)c3)n2)C1` [Example $148, 6-{(S)-5-[2-({4-[6-((S)-1-methyl-pyrrolidin-3-yloxy)-pyrazin-2-yl]-pyridin-2-ylmethyl}-amino)-ethyl]-2-oxo-oxazolidin-3-yl}-4H-pyrido[3,2-b][1,4]oxazin-3-one], the MIC in the assay on S. aureus A798, with K. pneumoniae T6474, in the assay on P. aeruginosa ATCC 27853 and against E. coli ATCC25922 was 1 µg/mL (≈ 1.83 µM) in each case.

Take `O=C1COc2ccc(N3C[C@H](CCNCc4cccc(-c5cccc(OC[C@@H]6CCCN6)c5)c4)OC3=O)nc2N1` [Example $102, 6-((S)-2-oxo-5-(2-(((3′-(((S)-pyrrolidin-2-yl)methoxy)-[1,1′-biphenyl]-3-yl)methyl)amino)ethyl)oxazolidin-3-yl)-2H-pyrido[3,2-b][1,4]oxazin-3(4H)-one]: the minimal inhibitory concentration (MIC) was 2 µg/mL (≈ 3.68 µM) against S. aureus A798, 2 µg/mL (≈ 3.68 µM) against K. pneumoniae T6474, 2 µg/mL (≈ 3.68 µM) with P. aeruginosa ATCC 27853 and 1 µg/mL (≈ 1.84 µM) with E. coli ATCC25922.

Take `CN1CC[C@H](Oc2cccc(-c3cccc(CNCC[C@H]4CN(c5ccc6c(n5)NC(=O)CO6)C(=O)O4)n3)n2)C1` [Example $129, 6-[(S)-5-(2-{[6′-((S)-1-methyl-pyrrolidin-3-yloxy)-[2,2′]bipyridinyl-6-ylmethyl]-amino}-ethyl)-2-oxo-oxazolidin-3-yl]-4H-pyrido[3,2-b][1,4]oxazin-3-one]: the MIC in the assay with S. aureus A798 was 2 µg/mL (≈ 3.67 µM); against K. pneumoniae T6474, 4 µg/mL (≈ 7.33 µM); with P. aeruginosa ATCC 27853, 8 µg/mL (≈ 14.7 µM); in the assay with E. coli ATCC25922, 4 µg/mL (≈ 7.33 µM).

As for `O=C1COc2ccc(N3C[C@H](CCNCc4cccc(-c5cccc(OCC6COCCN6)n5)c4)OC3=O)nc2N1.O=CO` (mixture of isomers) [Example $110, 6-[(S)-5-(2-{3-[6-((RS)-1-morpholin-3-ylmethoxy)-pyridin-2-yl]-benzylamino}-ethyl)-2-oxo-oxazolidin-3-yl]-4H-pyrido[3,2-b][1,4]oxazin-3-one formate], the minimum inhibitory concentration (MIC) was 0.25 µg/mL in the assay on S. aureus A798, 2 µg/mL with K. pneumoniae T6474, 2 µg/mL in the assay on P. aeruginosa ATCC 27853 and 1 µg/mL with E. coli ATCC25922.

As to `NCCOc1ccnc(-c2ccnc(CNCC[C@H]3CN(c4ccc5c(n4)NC(=O)CO5)C(=O)O3)c2)c1` [Example $157, 6-[(S)-5-(2-{[4-(2-amino-ethoxy)-[2,4′]bipyridinyl-2′-ylmethyl]-amino}-ethyl)-2-oxo-oxazolidin-3-yl]-4H-pyrido[3,2-b][1,4]oxazin-3-one], the minimum inhibitory concentration (MIC) against S. aureus A798 amounted to 8 µg/mL (≈ 15.8 µM); with K. pneumoniae T6474 it was 16 µg/mL (≈ 31.6 µM); with P. aeruginosa ATCC 27853, 1 µg/mL (≈ 1.98 µM); with E. coli ATCC25922, 4 µg/mL (≈ 7.91 µM).

For the compound `O=C1COc2ccc(N3C[C@H](CCNCc4cccc(-c5cccc(OC[C@H]6CCNC6)n5)c4)OC3=O)nc2N1` [Example $144, 6-[(S)-2-oxo-5-(2-{3-[6-((S)-1-pyrrolidin-3-ylmethoxy)-pyridin-2-yl]-benzylamino}-ethyl)-oxazolidin-3-yl]-4H-pyrido[3,2-b][1,4]oxazin-3-one], the MIC came to 2 µg/mL (≈ 3.67 µM) in the assay on S. aureus A798, 4 µg/mL (≈ 7.34 µM) in the assay with K. pneumoniae T6474, 1 µg/mL (≈ 1.84 µM) in the assay on P. aeruginosa ATCC 27853 and 4 µg/mL (≈ 7.34 µM) in the assay with E. coli ATCC25922.

Take `CN1CCC[C@@H]1COc1cccc(-c2cccc(CNCC[C@H]3CN(c4ccc5c(n4)NC(=O)CO5)C(=O)O3)c2)n1` [Example $171, 6-[(S)-5-(2-{3-[6-((R)-1-methyl-pyrrolidin-2-ylmethoxy)-pyridin-2-yl]-benzylamino}-ethyl)-2-oxo-oxazolidin-3-yl]-4H-pyrido[3,2-b][1,4]oxazin-3-one]: the MIC with S. aureus A798 was 0.25 µg/mL (≈ 0.448 µM); against K. pneumoniae T6474 it was 1 µg/mL (≈ 1.79 µM); against P. aeruginosa ATCC 27853 it was 1 µg/mL (≈ 1.79 µM); with E. coli ATCC25922, 1 µg/mL (≈ 1.79 µM).

As to `CN1CC[C@H](Oc2ccnc(-c3cccc(CNCC[C@H]4CN(c5ccc6c(n5)NC(=O)CO6)C(=O)O4)c3)n2)C1` [Example $137, 6-[(S)-5-(2-{3-[4-((S)-1-methyl-pyrrolidin-3-yloxy)-pyrimidin-2-yl]-benzylamino}-ethyl)-2-oxo-oxazolidin-3-yl]-4H-pyrido[3,2-b][1,4]oxazin-3-one], the minimal inhibitory concentration (MIC) against S. aureus A798 amounted to 0.5 µg/mL (≈ 0.916 µM); in the assay on K. pneumoniae T6474, 1 µg/mL (≈ 1.83 µM); against P. aeruginosa ATCC 27853, 1 µg/mL (≈ 1.83 µM); in the assay with E. coli ATCC25922 it was 1 µg/mL (≈ 1.83 µM).
